Here are results for 16 compounds from patent EP2495244A1, “Piperidinyl benzoimidazole derivatives as mPGEs-1 inhibitors” (NovaSaid AB, priority 2011, dated 2012).

Structures are written as SMILES.

Test [1] deals with T1, human mPGEs-1 (Homo sapiens, UniProt O14684).
T1 sequence (O14684 1-152): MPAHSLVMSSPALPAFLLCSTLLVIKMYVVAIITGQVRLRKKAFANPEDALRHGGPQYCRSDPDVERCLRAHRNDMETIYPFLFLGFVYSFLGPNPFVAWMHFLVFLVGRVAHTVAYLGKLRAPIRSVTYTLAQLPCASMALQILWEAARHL
Nature of the test: Thiobarbituric acid assay (TBA-MDA assay, malondialdehyde assay) for inhibition of mPGEs-1.

Test [2] relates to cellular PGE2 synthesis. Nature of the test: A549 cell-assay (PGE2 content of supernatant by EIA). It is filed as cell-based. The note with it: Homo sapiens, A549 lung carcinoma cells, TNFalfa (5 ng/mL) and IL-1beta (5 ng/mL) 16 hours, 30 minutes with test compound, 10 µM arachidonic acid 30 minutes, arithmetic mean values. The method, then:
Prostaglandin detection kits were purchased from Cayman Chemicals and used according to the instruction of the manufacturer.
A549 lung carcinoma cells, seeded at a density of 10, 000 cells/well, were grown in 96 well tissue culture plates. TNFalfa (5 ng/mL) and IL-1beta (5 ng/mL) were added and the cells were incubated for 16 hours. Cells were washed in PBS and test compounds at the appropriate concentration in HBSS/0.1% BSA were added. After 30 minutes of incubation with test compounds, 10 µM arachidonic acid was added and cells were further incubated for 30 minutes. Supernatant was collected and analyzed for PGE2 content by EIA according to manufacturer's instructions. Table 1. Inhibition of human mPGEs-1 and cellular PGE2 synthesis.

In test [1], `O=C(N[C@@H]1CCOC1)C1CCN(c2nc3cc(Cl)c(Cl)cc3n2-c2ccccn2)CC1` [Example 16, (R)-1-(5,6-dichloro-1-(pyridin-2-yl)-1H-benzo[d]imidazol-2-yl)-N-(tetrahydrofuran-3-yl)piperidine-4-carboxamide] displayed an IC50 of 150 nM.
As to `Cc1cc2nc(N3CCC(C(=O)N[C@@H]4CCOC4)CC3)n(-c3ccc4ncccc4c3)c2cc1C` [Example 15, (R)-1-(5,6-dimethyl-1-(quinolin-6-yl)-1H-benzo[d]imidazol-2-yl)-N-(tetrahydrofuran-3-yl)piperidine-4-carboxamide], the IC50 in test [2] came out at 66 nM; in test [1], 65 nM.
As for `O=C(N[C@@H]1CCOC1)C1CCN(c2nc3cc(Cl)c(Cl)cc3n2-c2ccc3cccc(F)c3n2)CC1` [Example 13, (R)-1-(5,6-Dichloro-1-(8-fluoroquinolin-2-yl)-1H-benzo[d]imidazol-2-yl)-N-(tetrahydrofuran-3-yl)piperidine-4-carboxamide], the IC50 in test [1] was found to be 30 nM.
In test [1], `O=C(N[C@@H]1CCOC1)C1CCN(c2nc3cc(Cl)c(Cl)cc3n2-c2cc3ccccc3cn2)CC1` [Example 14, (R)-1-(5,6-Dichloro-1-(isoquinolin-3-yl)-1H-benzo[d]imidazol-2-yl)-N-(tetrahydrofuran-3-yl)piperidine-4-carboxamide] returned an IC50 of 21 nM.
On to `O=C(N[C@@H]1CCOC1)C1CCN(c2nc3cc(Cl)c(Cl)cc3n2-c2ccc3cc(F)ccc3n2)CC1` [Example 10, (R)-1-(5,6-Dichloro-1-(6-fluoroquinolin-2-yl)-1H-benzo[d]imidazol-2-yl)-N-(tetrahydrofuran-3-yl)piperidine-4-carboxamide], for which the values for the IC50 in test [2] and in test [1] were 61 nM and 42 nM, respectively.
Consider `Cc1cc(-n2c(N3CCC(C(=O)N[C@@H]4CCOC4)CC3)nc3cc(Cl)c(Cl)cc32)nc2ccccc12` [Example 7, (R)-1-(5,6-Dichloro-1-(4-methylquinolin-2-yl)-1H-benzo[d]imidazol-2-yl)-N-(tetrahydrofuran-3-yl)piperidine-4-carboxamide], for which the IC50 in test [2] is 30 nM; in test [1], 32 nM.
As for `Cc1cc2c(cc1Cl)nc(N1CCC(C(=O)N[C@@H]3CCOC3)CC1)n2-c1ccc2ccccc2n1` [Example 2, (R)-1-(5-Chloro-6-methyl-1-(quinolin-2-yl)-1H-benzo[d]imidazol-2-yl)-N-(tetrahydrofuran-3-yl)piperidine-4-carboxamide], the IC50 came to 58 nM in test [2] and 25 nM in test [1].
On the same counts, the results for `Cc1cc2nc(N3CCC(C(=O)N[C@@H]4CCOC4)CC3)n(-c3ccc4cc(F)ccc4n3)c2cc1Cl` [Example 12, (R)-1-(6-Chloro-1-(6-fluoroquinolin-2-yl)-5-methyl-1H-benzo[d]imidazol-2-yl)-N-(tetrahydrofuran-3-yl)piperidine-4-carboxamide] are 24 nM and 26 nM.
In the case of `O=C(N[C@@H]1CCOC1)C1CCN(c2nc3cc(Cl)c(Cl)cc3n2-c2ccc3cccc(Cl)c3n2)CC1` [Example 5, (R)-1-(5,6-Dichloro-1-(8-chloroquinolin-2-yl)-1H-benzo[d]imidazol-2-yl)-N-(tetrahydrofuran-3-yl)piperidine-4-carboxamide], the values for the IC50 in test [2] and in test [1] were 4 nM and 34 nM, respectively.
`Cc1cc2c(cc1Cl)nc(N1CCC(C(=O)N[C@@H]3CCOC3)CC1)n2-c1ccc2cc(Cl)ccc2n1` [Example 8, (R)-1-(5-Chloro-1-(6-chloroquinolin-2-yl)-6-methyl-1H-benzo[d]imidazol-2-yl)-N-(tetrahydrofuran-3-yl)piperidine-4-carboxamide]: the IC50 in test [2] was determined as 40 nM; in test [1], 31 nM.
Take `Cc1cc2c(cc1Cl)nc(N1CCC(C(=O)N[C@@H]3CCOC3)CC1)n2-c1ccc2cc(F)ccc2n1` [Example 11, (R)-1-(5-Chloro-1-(6-fluoroquinolin-2-yl)-6-methyl-1H-benzo[d]imidazol-2-yl)-N-(tetrahydrofuran-3-yl)piperidine-4-carboxamide]: the half-maximal inhibitory concentration (IC50) in test [2] was determined as 16 nM; in test [1] it was 47 nM.
On the same counts, the results for `Cc1cc2nc(N3CCC(C(=O)N[C@@H]4CCOC4)CC3)n(-c3ccc4cc(Cl)ccc4n3)c2cc1C` [Example 6, (R)-1-(1-(6-Chloroquinolin-2-yl)-5,6-dimethyl-1H-benzo[d]imidazol-2-yl)-N-(tetrahydrofuran-3-yl)piperidine-4-carboxamide] are 50 nM and 58 nM.
For `Cc1cc2nc(N3CCC(C(=O)N[C@@H]4CCOC4)CC3)n(-c3ccc4cc(Cl)ccc4n3)c2cc1Cl` [Example 9, (R)-1-(6-Chloro-1-(6-chloroquinolin-2-yl)-5-methyl-1H-benzo[d]imidazol-2-yl)-N-(tetrahydrofuran-3-yl)piperidine-4-carboxamide], in that order: 67 nM and 51 nM.
For `O=C(N[C@@H]1CCOC1)C1CCN(c2nc3cc(Cl)c(Cl)cc3n2-c2ccc3cc(Cl)ccc3n2)CC1` [Example 4, (R)-1-(5,6-Dichloro-1-(6-chloroquinolin-2-yl)-1H-benzo[d]imidazol-2-yl)-N-(tetrahydrofuran-3-yl)piperidine-4-carboxamide], in that order: 44 nM and 35 nM.
As to `O=C(N[C@@H]1CCOC1)C1CCN(c2nc3cc(Cl)c(Cl)cc3n2-c2ccc3ccccc3n2)CC1` [Example 1, (R)-1-(5,6-Dichloro-1-(quinolin-2-yl)-1H-benzo[d]imidazol-2-yl)-N-(tetrahydrofuran-3-yl)piperidine-4-carboxamide], in test [2], it took 43 nM to reach half-maximal inhibition (IC50).
Consider `Cc1cc2nc(N3CCC(C(=O)N[C@@H]4CCOC4)CC3)n(-c3ccc4ccccc4n3)c2cc1Cl` [Example 3, (R)-1-(6-Chloro-5-methyl-1-(quinolin-2-yl)-1H-benzo[d]imidazol-2-yl)-N (tetrahydrofuran-3-yl)piperidine-4-carboxamide], for which the IC50 is 58 nM in test [2] and 37 nM in test [1].
